Assay results as given in patent publication US20250302343A1, “AN ELECTRODE ARRAY FOR MEASURING THE PH OF ANIMAL TISSUES, A PROBE […] AN ARRAY, AND AN ASSEMBLY COMPRISING SAID PROBE” (QUANTUM I[…]. Z O.O., priority 2022, published 2025).
Entries after “also recorded” stand apart in the source; their conditions may differ.

Conditions: electrodes comprising the ionic liquid in the reference electrode membrane; ISO 10993-5:2009 (E) and ISO 10993-12:2021 (E)
Procedure: An evaluation of the acute cytotoxicity of the reference electrode components was performed.
Cytotoxicity-based biocompatibility tests were performed according to the procedures of ISO 10993-5:2009 (E) and ISO 10993-12:2021 (E) standards.

Compound	acute cytotoxicity
choline acetate	no significant toxicity
choline phosphate	no significant toxicity
CCCCn1cc[n+](C)c1.[Cl-] [1-butyl-3-methylimidazolium chloride]	no significant toxicity
CC(=O)[O-].CCCCn1cc[n+](C)c1 [1-butyl-3-methylimidazolium acetate]	no significant toxicity
CCCCn1cc[n+](C)c1.F[P-](F)(F)(F)(F)F [1-butyl-3-methylimidazolium hexafluorophosphate]	no significant toxicity
1-ethyl-3-methylimidazolium bis(trifluoromethyl sulfonyl)imide	no significant toxicity; also recorded: lowest cytotoxicity
